Earlier results on 1 molecule are cited in patent US20250221949A1, “ANTISEPTIC, ANTISEBORRHEIC, EXFOLIATING COMPOSITION TO REMOVE OR PREVENT ACNE” (Excalibur Pharmaceuticals, Inc., priority 2012, published 2025).

The test system of this series is Candida albicans, some Trichomonas, Staphylococcus aureus; Escherichia coli, Salmonella typhi, S. paratyphi, Shigella dysenterica and Vibro cholera species. The settings on record: background statement.

As to `C=CCS[S+]([O-])CC=C` (stereo not shown) [DDO, diallyl disulphide oxide], the “in vitro activity against microorganisms (in words)” value is “has in vitro activity”.
